Tests used:
[1] = Measuring stability of water solutions (temperature at which the solution remained fluid after 24 hours and seeding); format: physicochemical; conditions: after 24 hours and seeding with seed crystal
Experimental: According to the invention there is therefore provided a composition consisting essentially of water and the tetramethylammonium salt of 1,2-benzisothiazolin-3-one having a freezing point of less than about 0° C., such as less than about −1° C. for example less than about −3° C., about −5° C., about −10° C., about −15° C., about −20° C., about −25° C. or −30° C. As used herein the expression “freezing point” means that the composition is fluid after 24 hours and seeded with solid tetramethylammonium salt of 1,2-benzisothiazolin-3-one.
A series of solutions of tetramethylammonium BIT in distilled water were prepared. In series of experiments the temperature at which the solution remained fluid after 24 hours and seeding with a seed crystal of tetramethylammonium BIT was measured.

[2] = 59 wt % tetramethylammonium BIT (40 wt % BIT) in water; after storage for 24 hours and seeding; cited from earlier work

C[N+](C)(C)C.O=c1[n-]sc2ccccc12 [tetramethylammonium BIT, tetramethylammonium salt of 1,2-benzisothiazolin-3-one]
Temp at which the solution remained fluid ([1]; 20.3 % BIT concn in distilled water): −5 °C
Temp at which the solution remained fluid ([1]; 25.3 % BIT concn in distilled water): −8 °C
Temp at which the solution remained fluid ([1]; 30.4 % BIT concn in distilled water): −13 °C
Temp at which the solution remained fluid ([1]; 35.6 % BIT concn in distilled water): −20 °C
Temp at which the solution remained fluid ([1]; 39.3 % BIT concn in distilled water): −32 °C
Temp at which the solution remained fluid ([1]; 42.6 % BIT concn in distilled water): −10 °C
Temp at which the solution remained fluid ([1]; 45 % BIT concn in distilled water): 5 °C
freezing point of lowest freezing point water solution [2]: 3 °C

Reference: patent US8466184B2, “Biocide” (Titan Chemicals Limited, priority 2011, dated 2013)
